Source: patent US20090011007A1, “Pharmaceutical Compositions Containing Mixtures of Polymers and Active Agents Poorly Soluble in Water” (Evonik Roehm GmbH, priority 2006, published 2009)
≈ marks a conversion by molar mass, not a printed value.

How the values were obtained:
[1] = cited from earlier work
[2] = Determination of the solubility of felodipine at pH 1.2 (orbital shaker, 24 hours, SGFsp, HPLC); assay type: physicochemical; conditions: SGFsp medium buffered to pH 1.2, simulated gastric fluid, thermodynamic from solid, SGFsp pH 1.2, 37° C., 10 mg in 20 ml, read-out: solubility of felodipine alone at pH 1.2
Protocol: Felodipine has a solubility in water of <1 mg/l […]. The solubility for felodipine was determined for comparison in a medium buffered to pH 1.2 (SGFsp pH 1.2). For this purpose, 10 mg were kept in motion at 37° C. on an orbital shaker in 20 ml of medium for 24 hours. The concentration was determined by means of HPLC. For felodipine alone, without inventive formulation, a solubility of 0.5 mg/l was determined.

## CCOC(=O)C1=C(C)NC(C)=C(C(=O)OC)C1c1cccc(Cl)c1Cl (centres unmarked) [felodipine alone, felodipine]
[1]
  solubility in water: < 1 µg/mL
[2]
  solubility at 24 h: 0.5 µg/mL (≈ 1.3 µM)
